According to US20230190887A1, “TARGETING G3BP AGGREGATION TO PREVENT NEURODEGENERATION” (priority 2019, published 2023):

System: NMJs in co-cultures with puromycin-resistant muscles
Experiment: NMJ function after local protein synthesis inhibition
Format: cell-based, mouse
Conditions: Puromycin 100 μg/mL exclusively in NMJ compartment, 16 h
Procedure: Analysis of NMJ function following protein synthesis inhibition with puromycin was performed by co-culturing WT MNs with primary muscles transfected with empty […]-mCherry vectors expressing PAC gene for puromycin resistance. After 12 days in co-culture, once cultures matured and NMJ were formed, Puromycin (100 μg/mL) was added exclusively to the distal (NMJ) compartment for 16 h. The proximal compartment was kept with higher volume of medium for allowing puromycin to act only locally within the NMJ compartment. After 16 h, cultures were labeled with OGB, and the calcium activity of axons and muscles was recorded. Analysis of the percent of muscles with calcium transients in co-culture, was performed on muscles with at least one overlapping axon. Only muscles that expressed mCherry (as a reporter for the expression of PAC) were used for this analysis. OGB lyophilized stock (Life technologies) was resuspended with 20% (w/v) Pluronic acid for a stock concentration of 3 mM Stock was diluted 1:1,000 in the appropriate medium. OGB was incubated with cultures for […] in 37° C., 5% CO2 incubator, and then washed 3 times with culture medium prior imaging. Calcium transients in axons and muscles were recorded in a spinning disk confocal microscope equipped with an EMCCD camera with ×40 oil objective using 488 nm laser. Image sequences of 1,000 frames were acquired at frame rate of 25 FPS. […]

In the case of `COc1ccc(C[C@H](N)C(=O)N[C@H]2[C@@H](O)[C@H](n3cnc4c(N(C)C)ncnc43)O[C@@H]2CO)cc1` [puromycin, Puromycin], the “active (innervated and contracting) muscles, calcium transients” value is reported as “pronounced decrease in active muscles”.
